Series [1] can be described thus: Plasma concentration in Duncan Hartley guinea pig at 10 mg/kg, po. Format: ADME, organism-based, Cavia porcellus. Set-up: dose 10 mg/kg, route oral. Particulars: in vivo.
Series [2] in a line: Oral bioavailability in Sprague-Dawley rat at 1 mg/kg. It counts as ADME, organism-based. Particulars: in vivo.
Series [3] in a line: Mean residence time in Sprague-Dawley rat at 1 mg/kg, po. It counts as ADME, organism-based. Set-up: dose 1 mg/kg, route oral. Particulars: in vivo.
Series [4] is described as follows: Volume of distribution at steady state in Sprague-Dawley rat at 1 mg/kg, iv. Format: ADME, organism-based. Set-up: dose 1 mg/kg, route intravenous. As to conditions: in vivo, read-out: Vdss.

Consider eight compounds from ChEMBL document CHEMBL2390914, “Discovery and SAR of PF-4693627, a potent, selective and orally bioavailable mPGES-1 inhibitor for the potential treatment of inflammation” (Bioorg Med Chem Lett, 2013).

As a reminder, the bioavailability is dose-corrected exposure relative to a reference, in per cent. Low readings indicate poor availability, high ones good availability. As a reminder, the MRT is the average time that molecules of a dose stay in the body. For the compound `O=C(N[C@H]1CCC[C@H](CO)C1)C1CCN(c2nc3cc(Cl)c(C(F)(F)F)cc3o2)CC1`, the concentration in series [1] stood at 1600 nM. The compound further showed a bioavailability in series [2] of 42%. The MRT in series [3] was 7.22 h. The Vd in series [4] is 14 L/kg.

In the case of `CCOc1ccc(-c2cc3oc(N4CCC(C(=O)N[C@H]5CCC[C@H](CO)C5)CC4)nc3cc2Cl)cc1`, in series [2], the bioavailability was found to be 17%. Also, the MRT in series [3] was found to be 6.26 h. Also, the Vd in series [4] was determined as 2.4 L/kg.

On to `CCc1cc2oc(N3CCC(C(=O)N[C@H]4CCC[C@H](CO)C4)CC3)nc2cc1Cl`, for which the MRT in series [3] came to 0.44 h. In series [4], the Vd stood at 2.1 L/kg.

`COc1ccc2cc([C@H](C)C(=O)O)ccc2c1` [NAPROXEN] displayed a concentration in series [1] of 154000 nM.

Regarding `O=C(N[C@H]1CCC[C@H](CO)C1)C1CCN(c2nc3cc(Cl)c(C(F)F)cc3o2)CC1`, in series [3], the MRT was 0.39 h. In addition, the Vd in series [4] is 1.4 L/kg.

For `O=C(N[C@H]1CCC[C@H](CO)C1)C1CCN(c2nc3cc(Cl)ccc3o2)CC1`, the bioavailability in series [2] was determined as 66%. Besides, in series [3], the MRT stood at 0.7 h. The Vd in series [4] worked out at 0.72 L/kg.

Regarding `O=C(N[C@H]1CCC[C@H](CO)C1)C1CCN(c2nc3cc(Cl)c(-c4ccc(Cl)cc4)cc3o2)CC1`, the concentration in series [1] stood at 1200 nM. In addition, the bioavailability in series [2] was determined as 59%. The compound also showed an MRT in series [3] of 4.42 h. In series [4], the Vd was 3 L/kg.

`O=C(N[C@H]1CCC[C@H](CO)C1)C1CCN(c2nc3cc(Cl)c(-c4ccc(OC(F)(F)F)cc4)cc3o2)CC1` showed a concentration in series [1] of 510 nM. Further, in series [2], the bioavailability turned out to be 86%. The compound also had an MRT in series [3] of 7.78 h. Besides, the Vd in series [4] is 6.4 L/kg.
